Reference: PMC6172451 (Frontiers in Microbiology, 2018)
Read-outs that look alike come from different tables or passages of the source. Bridges are numbered along the chain shown (N, C = ends). Where no end group is shown, it is not given here.

Tests used:
L. monocytogenes 54002 [1] = assay: Membrane permeabilization, SYTOX Green stain; type: cell-based, Listeria monocytogenes
Description: The fluorescence was detected using RT-PCR instrument combined with 5 μM SYTOX^TM Green Stain (Invitrogen, United States). Cells were resuspended in sterile 20 mM sodium phosphate buffer to give 10^6 CFU/mL approximately. Bacteriocin was added at final concentration of 256 and 128 μg/mL, respectively, while a sample with added sodium phosphate buffer was used as control. Meanwhile, the treated cells were examined using confocal laser scanning microscopy (CLSM; Leica, United States) combined with 5 μM SYTOX^TM Green Dead Cell Stain.

L. monocytogenes 54002 [2] = assay: Mode of action: viable cells and optical density; type: cell-based, Listeria monocytogenes; settings: 256 μg/mL bacteriocin, about 10^8 CFU/mL in 20 mM sodium phosphate buffer, 37°C, after 3 h
Description: Cells were harvested and resuspended in sterile 20 mM sodium phosphate buffer to give 10^8 CFU/mL approximately. Bacteriocin was added for final concentration of 256 μg/mL, while a sample without added bacteriocin was used as control. All samples were incubated for 5 h at 37°C. The optical density (600 nm) and viable cells were monitored every 1 h ([Deraz et al., 2007]).

[3] = pH stability, remaining antibacterial activity; type: physicochemical; settings: 256 μg/mL, 3 h at 37°C, readjusted to pH 6.0
[4] = 1% (V/V) Tween 20, Tween 80, urea, and EDTA at 37°C for 3 h
Description: After 3 h of incubation at 37°C, the remaining activity against indicator was determined and untreated samples were used as a control test.

proteinase K = proteinase K (Parengyodontium album, UniProt P06873); settings: 360 μL bacteriocin (256 μg/mL) + 40 μL proteinase K, final 1 mg/mL; pH 7.5; 37°C; 3 h; read-out activity against L. monocytogenes 54002; triplicate
proteinase K, sequence (P06873 106-384): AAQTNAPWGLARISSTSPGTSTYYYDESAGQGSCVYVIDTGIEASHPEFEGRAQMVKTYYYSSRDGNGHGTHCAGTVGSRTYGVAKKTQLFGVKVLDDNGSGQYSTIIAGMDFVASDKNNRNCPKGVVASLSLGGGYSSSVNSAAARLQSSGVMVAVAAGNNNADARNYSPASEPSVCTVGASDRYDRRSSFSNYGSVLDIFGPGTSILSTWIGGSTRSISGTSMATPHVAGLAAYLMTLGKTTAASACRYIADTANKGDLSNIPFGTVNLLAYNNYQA
Description: (§1) After 3 h of incubation at appropriate the temperature (Table 3), the activity against indicator strain (L. monocytogenes 54002) was determined. Non-enzymic treatment was used as control test.

pepsin = pepsin (Sus scrofa, UniProt P00791); settings: 360 μL bacteriocin (256 μg/mL) + 40 μL pepsin, final 1 mg/mL; pH 3; 37°C; 3 h; read-out activity against L. monocytogenes 54002; triplicate
pepsin, sequence (P00791 60-385): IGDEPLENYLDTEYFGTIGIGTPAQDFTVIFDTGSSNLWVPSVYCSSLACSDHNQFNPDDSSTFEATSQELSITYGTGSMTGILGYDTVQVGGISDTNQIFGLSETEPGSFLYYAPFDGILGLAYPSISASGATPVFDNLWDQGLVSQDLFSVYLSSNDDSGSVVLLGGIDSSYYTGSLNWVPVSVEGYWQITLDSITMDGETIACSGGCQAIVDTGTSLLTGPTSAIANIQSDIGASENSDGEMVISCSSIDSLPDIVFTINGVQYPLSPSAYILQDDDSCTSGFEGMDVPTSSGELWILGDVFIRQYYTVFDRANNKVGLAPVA
Description: as §1

papain = papain (Carica papaya, UniProt P00784); settings: 360 μL bacteriocin (256 μg/mL) + 40 μL papain, final 1 mg/mL; pH 6.5; 37°C; 3 h; read-out activity against L. monocytogenes 54002; triplicate
papain, sequence (P00784 134-345): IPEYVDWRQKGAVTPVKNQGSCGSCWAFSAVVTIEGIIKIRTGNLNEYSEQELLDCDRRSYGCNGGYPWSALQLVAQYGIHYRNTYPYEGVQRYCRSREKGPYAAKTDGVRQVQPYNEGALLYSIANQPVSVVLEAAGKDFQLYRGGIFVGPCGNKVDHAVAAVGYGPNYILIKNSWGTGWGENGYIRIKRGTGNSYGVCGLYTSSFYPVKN
Description: as §1

chymotrypsin = chymotrypsin (Bos taurus, UniProt P00766); settings: 360 μL bacteriocin (256 μg/mL) + 40 μL chymotrypsin, final 1 mg/mL; pH 7.8; 25°C; 3 h; read-out activity against L. monocytogenes 54002; triplicate
Description: as §1

Q: Which results are given for “VIADKYYGNGVSCGKHTCTVDWGEAFSCSVSHLANFGHGKC (disulfide 13-18; cysteines drawn unpaired) [plantaricin LPL-1]”?
A: Amounts of dead cells (CLSM) (L. monocytogenes 54002 [1]; 256 μg/mL for 10, 20 and 30 min, 5 μM SYTOX Green Dead Cell Stain, confocal laser scanning microscopy): increased gradually; Fluorescence intensity (SYTOX Green) (L. monocytogenes 54002 [1]; 128 and 256 μg/mL, about 10^6 CFU/mL, 5 μM SYTOX Green, RT-PCR instrument, control remained stable): increased; Decrease of optical density (600 nm) (L. monocytogenes 54002 [2]): 0.69 units; Decrease of the number of viable cells (L. monocytogenes 54002 [2]): 2.11 Log10 cfu; Remaining antibacterial activity (%) ([3]; pH 10, pH set with HCl/NaOH, activity against indicator, Figure 5A): 25%; Activity kept ([3]; pH between 2.0 and 7.0): 90%; Thermal stability in words (60, 80, and 100°C for 15 and 30 min): remained stable; Remaining antibacterial activity (%) (121°C, 20 min, 256 μg/mL, autoclave, Figure 5B): 58.82%; Stability toward surfactants in words [4]: remained stable; Diameter (mm) of inhibition zone after enzyme treatment (proteinase K): 0 mm; Diameter (mm) of inhibition zone after enzyme treatment (pepsin): 0 mm; Diameter (mm) of inhibition zone after enzyme treatment (papain): 0 mm; Diameter (mm) of inhibition zone after enzyme treatment (chymotrypsin): 0 mm
